This is an account of results in patent US11834453B2, “Substituted pyrimido[5,4-d]pyrimidines as HER2 inhibitors” (Array BioPharma Inc., priority 2020, dated 2023).

Broadly, the IC50 is the concentration that gives 50% inhibition.

SMILES strings stand for the structures. Where two headings read alike, the source gives them in different places.

Assay [1] has as its target ErbB2 WT (Homo sapiens (Human), UniProt P04626). Description: ErbB enzyme assay (CisBio HTRF KinEASE-TK), Assay 2. The format is biochemical. The protocol:
Compound potencies were determined using CisBio's HTRF Kinease-TK assay technology. The kinases were incubated with 250 nM TK-substrate biotin (CisBio, part of cat #62TK0PEC) at 1 mM ATP along with test compounds in a buffer consisting of 25 mM HEPES, pH 7.4, 10 mM MgCl2, 0.01% Triton X-100, and 2% DMSO in a volume of 8 μL. […] After 30-minute incubation at 22° C., the reaction was quenched by adding 8 μL of quench solution containing 62.5 nM Sa-XL665 and 0.25× TK-Ab-Cryptate in HTRF detection buffer (all from CisBio, part of cat #62TK0PEC). After a 1-hour incubation at 22° C., the extent of reaction was determined using a PerkinElmer EnVision multimode plate reader via HTRF dual wavelength detection, and the percent of control (POC) was calculated using a ratiometric emission factor. One hundred POC was determined using DMSO only samples (no compound present), and 0 POC was determined using pre-quenched control reactions.
(§1) Enzyme lots and concentration used are in Table 2.
For orientation: TR-FRET usually uses a lanthanide donor and a delayed reading to cut background.

The target in assay [2] is ErbB2 with Exon 20 YVMA insertion (HER2-YVMA) (Homo sapiens (Human), UniProt P04626, INS775YVMA). The assay can be described thus: Cellular phosphorylation assay, constitutive ErbB2 phosphorylation (Y1196) in engineered NIH 3T3 cells, Assay 4. In kind it is cell-based. The protocol: Serially diluted compounds were added to the plates for 1 hour at 37° C./5% CO2. EGFR WT cells were stimulated with 100 ng/ml rEGF for an additional 10 minutes at 37° C./5% CO2. After compound incubation, medium was removed from the cells, which were then fixed in 3.7% formaldehyde in PBS at room temperature for 20 minutes. Following a wash with PBS, cells were permeabilized with 100% methanol at room temperature for 10 minutes. Cells were then washed with PBS/0.05% Tween-20 and blocked with Odyssey blocking buffer (LI-COR Biosciences) for at least 1 hour at room temperature. Antibodies to phosphorylated ErbB2 (Y1196, Cell Signaling #6942) or phosphorylated EGFR (Y1068, Cell Signaling #3777) and GAPDH (Millipore #MAB374) were added to the cells in blocking buffer containing 0.05% azide and incubated overnight at 4° C. After washing with PBS/0.05° i° Tween-20, the cells were incubated with fluorescently labeled secondary anti-rabbit antibody (LiCOR, IRDye 800CW #926-32211) and anti-mouse antibody (Molecular Probes, Alexa Fluor 680 #A21058) for 1 hour at room temperature in the dark. Cells were then washed and analyzed for fluorescence at both wavelengths using the Odyssey Infrared Imaging System (LI-COR Biosciences). Phosphorylated ErbB2 and EGFR signal was normalized to GAPDH signal to generate curves and calculate IC50 values.
ErbB2 with Exon 20 YVMA insertion (HER2-YVMA), sequence (P04626 other isoform, or with tags, fused parts or gaps ins YVMA behind 775): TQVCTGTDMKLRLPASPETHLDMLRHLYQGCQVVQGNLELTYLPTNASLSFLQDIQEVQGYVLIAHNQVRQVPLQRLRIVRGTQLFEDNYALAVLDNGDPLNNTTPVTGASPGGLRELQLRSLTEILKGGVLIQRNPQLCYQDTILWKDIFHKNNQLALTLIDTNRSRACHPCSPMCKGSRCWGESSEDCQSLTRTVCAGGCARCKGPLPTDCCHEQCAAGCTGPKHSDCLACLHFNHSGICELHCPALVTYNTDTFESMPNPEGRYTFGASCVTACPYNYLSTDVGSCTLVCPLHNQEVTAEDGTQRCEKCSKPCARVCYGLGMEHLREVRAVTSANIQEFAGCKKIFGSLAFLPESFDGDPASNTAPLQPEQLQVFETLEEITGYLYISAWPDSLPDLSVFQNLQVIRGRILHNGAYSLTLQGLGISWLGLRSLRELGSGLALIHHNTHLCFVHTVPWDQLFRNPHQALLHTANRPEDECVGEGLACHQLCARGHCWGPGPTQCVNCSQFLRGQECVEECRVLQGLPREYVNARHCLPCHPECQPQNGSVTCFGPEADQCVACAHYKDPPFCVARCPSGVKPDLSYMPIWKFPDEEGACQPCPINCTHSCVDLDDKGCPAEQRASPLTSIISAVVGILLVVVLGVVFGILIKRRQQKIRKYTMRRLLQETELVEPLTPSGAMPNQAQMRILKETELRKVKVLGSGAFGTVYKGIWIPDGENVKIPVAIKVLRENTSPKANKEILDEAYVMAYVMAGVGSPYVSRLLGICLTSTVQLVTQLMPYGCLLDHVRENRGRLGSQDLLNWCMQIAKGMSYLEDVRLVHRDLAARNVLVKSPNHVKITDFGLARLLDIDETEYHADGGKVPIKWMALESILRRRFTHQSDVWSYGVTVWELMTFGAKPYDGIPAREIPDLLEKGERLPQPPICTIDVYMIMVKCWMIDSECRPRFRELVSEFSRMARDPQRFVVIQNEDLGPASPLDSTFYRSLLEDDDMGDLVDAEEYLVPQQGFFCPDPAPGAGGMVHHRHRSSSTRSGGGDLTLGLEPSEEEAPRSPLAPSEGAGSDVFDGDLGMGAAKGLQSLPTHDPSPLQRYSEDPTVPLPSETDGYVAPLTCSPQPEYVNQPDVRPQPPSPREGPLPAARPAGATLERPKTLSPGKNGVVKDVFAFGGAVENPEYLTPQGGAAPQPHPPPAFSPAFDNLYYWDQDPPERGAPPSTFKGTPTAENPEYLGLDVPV

Assay [3] addresses EGFR (Homo sapiens (Human), UniProt P00533). Description: ErbB enzyme assay (CisBio HTRF KinEASE-TK), Assay 3. In kind it is biochemical. The protocol: Compound potencies were determined using CisBio's HTRF Kinease-TK assay technology. The kinases were incubated with 250 nM TK-substrate biotin (CisBio, part of cat #62TK0PEC) at 1 mM ATP along with test compounds in a buffer consisting of 25 mM HEPES, pH 7.4, 10 mM MgCl2, 0.01% Triton X-100, and 2% DMSO in a volume of 8 μL. Compounds were prepared as a three-fold serial dilution in DMSO and added to the assay to give the appropriate final concentration. After 30-minute incubation at 22° C., the reaction was quenched by adding 8 μL of quench solution containing 62.5 nM Sa-XL665 and 0.25× TK-Ab-Cryptate in HTRF detection buffer (all from CisBio, part of cat #62TK0PEC). After a 1-hour incubation at 22° C., the extent of reaction was determined using a PerkinElmer EnVision multimode plate reader via HTRF dual wavelength detection, and the percent of control (POC) was calculated using a ratiometric emission factor. One hundred POC was determined using DMSO only samples (no compound present), and 0 POC was determined using pre-quenched control reactions. A 4-parameter logistic curve was fit to the POC values as a function of the concentration of compound, and the IC50 value was the point where the best-fit curve crossed 50 POC.
as §1

For assay [4], the target named is ErbB2 insYVMA (HER2-YVMA, SEQ ID NO: 2) (Homo sapiens, UniProt P04626, INS775YVMA/P1170A). The assay can be described thus: biochemical. As to conditions: ErbB2 insYVMA enzyme assay.
ErbB2 insYVMA (HER2-YVMA, SEQ ID NO: 2), sequence (P04626 with tags, fused parts or gaps INS775YVMA/P1170A limits assumed): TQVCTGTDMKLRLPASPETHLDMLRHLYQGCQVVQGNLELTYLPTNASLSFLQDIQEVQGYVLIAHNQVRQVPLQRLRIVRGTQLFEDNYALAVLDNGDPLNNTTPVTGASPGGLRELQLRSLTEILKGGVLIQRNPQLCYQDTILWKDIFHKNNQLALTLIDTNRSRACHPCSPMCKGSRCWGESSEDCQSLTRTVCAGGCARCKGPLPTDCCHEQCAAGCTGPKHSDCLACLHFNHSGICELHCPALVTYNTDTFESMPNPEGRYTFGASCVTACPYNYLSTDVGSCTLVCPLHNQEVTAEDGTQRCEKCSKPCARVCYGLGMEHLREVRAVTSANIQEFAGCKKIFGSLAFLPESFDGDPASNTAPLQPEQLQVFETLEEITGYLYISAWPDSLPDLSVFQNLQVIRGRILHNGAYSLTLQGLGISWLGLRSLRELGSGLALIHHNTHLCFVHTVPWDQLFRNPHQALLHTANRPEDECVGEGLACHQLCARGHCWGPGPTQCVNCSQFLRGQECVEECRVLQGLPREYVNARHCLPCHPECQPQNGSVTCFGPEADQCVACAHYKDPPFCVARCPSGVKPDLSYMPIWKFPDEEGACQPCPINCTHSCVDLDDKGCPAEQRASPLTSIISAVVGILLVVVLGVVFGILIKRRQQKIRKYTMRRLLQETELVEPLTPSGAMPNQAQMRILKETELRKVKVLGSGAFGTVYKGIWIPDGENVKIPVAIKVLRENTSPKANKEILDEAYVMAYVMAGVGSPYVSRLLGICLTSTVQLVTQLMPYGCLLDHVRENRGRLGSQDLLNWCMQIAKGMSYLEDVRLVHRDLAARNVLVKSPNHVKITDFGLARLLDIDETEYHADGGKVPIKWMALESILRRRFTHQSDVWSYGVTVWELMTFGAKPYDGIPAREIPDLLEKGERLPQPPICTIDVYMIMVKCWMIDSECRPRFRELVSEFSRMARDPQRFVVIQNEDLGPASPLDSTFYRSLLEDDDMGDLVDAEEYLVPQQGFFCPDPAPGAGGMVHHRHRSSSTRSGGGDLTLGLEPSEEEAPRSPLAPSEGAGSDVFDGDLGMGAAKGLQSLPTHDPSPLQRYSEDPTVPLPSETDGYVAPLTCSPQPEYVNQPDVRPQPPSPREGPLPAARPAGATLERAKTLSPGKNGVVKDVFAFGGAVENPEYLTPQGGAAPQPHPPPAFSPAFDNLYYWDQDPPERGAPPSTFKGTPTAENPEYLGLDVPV

EGFR, sequence (P00533 25-1210): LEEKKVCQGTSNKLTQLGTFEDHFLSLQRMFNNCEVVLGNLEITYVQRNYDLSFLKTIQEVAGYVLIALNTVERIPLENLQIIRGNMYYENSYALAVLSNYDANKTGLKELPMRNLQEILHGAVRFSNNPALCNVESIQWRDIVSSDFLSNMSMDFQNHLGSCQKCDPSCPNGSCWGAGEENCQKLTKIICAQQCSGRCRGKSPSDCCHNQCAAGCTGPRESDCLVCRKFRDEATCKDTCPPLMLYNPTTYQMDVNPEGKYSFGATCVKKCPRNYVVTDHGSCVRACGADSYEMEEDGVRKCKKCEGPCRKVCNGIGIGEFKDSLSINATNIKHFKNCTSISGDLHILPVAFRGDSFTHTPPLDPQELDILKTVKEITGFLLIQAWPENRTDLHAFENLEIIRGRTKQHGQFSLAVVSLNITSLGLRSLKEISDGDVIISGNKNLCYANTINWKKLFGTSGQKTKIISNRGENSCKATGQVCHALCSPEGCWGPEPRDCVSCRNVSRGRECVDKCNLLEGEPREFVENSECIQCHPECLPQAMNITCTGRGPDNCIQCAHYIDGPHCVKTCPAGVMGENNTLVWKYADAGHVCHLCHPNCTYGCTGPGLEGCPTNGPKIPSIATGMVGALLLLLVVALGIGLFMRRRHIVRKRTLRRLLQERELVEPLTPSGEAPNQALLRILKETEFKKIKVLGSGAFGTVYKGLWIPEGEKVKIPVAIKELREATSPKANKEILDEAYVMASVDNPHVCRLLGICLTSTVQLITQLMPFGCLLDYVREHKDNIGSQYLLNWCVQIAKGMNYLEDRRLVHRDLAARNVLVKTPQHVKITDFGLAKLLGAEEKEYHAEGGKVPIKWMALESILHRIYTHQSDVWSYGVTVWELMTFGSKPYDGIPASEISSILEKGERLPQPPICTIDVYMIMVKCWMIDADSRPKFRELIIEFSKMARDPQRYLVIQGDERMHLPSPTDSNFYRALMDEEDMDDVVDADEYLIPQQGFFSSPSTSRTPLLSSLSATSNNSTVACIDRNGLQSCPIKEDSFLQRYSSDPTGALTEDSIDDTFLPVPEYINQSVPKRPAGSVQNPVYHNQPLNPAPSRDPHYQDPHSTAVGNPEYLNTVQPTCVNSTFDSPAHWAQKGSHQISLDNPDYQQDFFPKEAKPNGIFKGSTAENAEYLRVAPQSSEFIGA
ErbB2 WT, sequence (P04626 23-1255): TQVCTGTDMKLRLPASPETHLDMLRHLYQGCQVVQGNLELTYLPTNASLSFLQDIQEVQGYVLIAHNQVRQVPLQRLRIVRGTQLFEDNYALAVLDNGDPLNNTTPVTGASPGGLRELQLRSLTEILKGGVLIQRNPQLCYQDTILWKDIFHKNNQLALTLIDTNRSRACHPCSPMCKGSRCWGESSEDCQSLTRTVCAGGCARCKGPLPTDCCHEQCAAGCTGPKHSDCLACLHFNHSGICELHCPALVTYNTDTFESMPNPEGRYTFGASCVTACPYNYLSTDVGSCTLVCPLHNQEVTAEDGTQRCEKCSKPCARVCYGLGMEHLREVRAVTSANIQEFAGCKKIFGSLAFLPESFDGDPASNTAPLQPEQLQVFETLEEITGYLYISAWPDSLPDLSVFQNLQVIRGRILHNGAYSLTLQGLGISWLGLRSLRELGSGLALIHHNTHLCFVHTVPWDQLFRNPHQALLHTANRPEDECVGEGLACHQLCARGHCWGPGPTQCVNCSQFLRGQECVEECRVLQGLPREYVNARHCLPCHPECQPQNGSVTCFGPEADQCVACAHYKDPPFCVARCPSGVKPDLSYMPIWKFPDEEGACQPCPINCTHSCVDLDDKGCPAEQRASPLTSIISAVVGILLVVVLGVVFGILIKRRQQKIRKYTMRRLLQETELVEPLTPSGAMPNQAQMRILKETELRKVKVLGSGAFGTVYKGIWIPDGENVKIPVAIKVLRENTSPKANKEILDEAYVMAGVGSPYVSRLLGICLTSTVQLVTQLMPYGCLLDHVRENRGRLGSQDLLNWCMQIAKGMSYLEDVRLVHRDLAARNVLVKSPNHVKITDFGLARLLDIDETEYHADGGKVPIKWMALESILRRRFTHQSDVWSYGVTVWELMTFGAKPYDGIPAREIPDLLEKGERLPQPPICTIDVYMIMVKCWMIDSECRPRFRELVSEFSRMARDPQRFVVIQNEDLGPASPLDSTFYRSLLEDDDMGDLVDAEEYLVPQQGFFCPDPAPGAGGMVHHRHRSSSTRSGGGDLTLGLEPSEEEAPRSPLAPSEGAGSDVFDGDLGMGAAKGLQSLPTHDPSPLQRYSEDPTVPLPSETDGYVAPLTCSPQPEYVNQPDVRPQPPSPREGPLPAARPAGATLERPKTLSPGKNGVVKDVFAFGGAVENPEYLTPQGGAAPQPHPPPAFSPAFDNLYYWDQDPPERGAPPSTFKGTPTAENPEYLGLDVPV

As to `Cc1cc(Nc2ncnc3cnc(N[C@H](C)COC(F)(F)F)nc23)ccc1Oc1ccc2c(c1)ncn2C` [Example 64, (R)—N8-(3-methyl-4-((1-methyl-1H-benzo[d]imidazol-5-yl)oxy)phenyl)-N2-(1-(trifluoromethoxy)propan-2-yl)pyrimido[5,4-d]pyrimidine-2,8-diamine], the IC50 was 1300 nM in assay [1], 324 nM in assay [2], at least 10000 nM in assay [3] and 157 nM in assay [4] (read-out: Assay 1 IC50).

On to `Cc1cc(Nc2ncnc3cnc(N4C[C@H](C)O[C@@H](C)C4)nc23)ccc1Oc1ccc2c(c1)ncn2C` [Example 72, 6-((2S,6S)-2,6-dimethylmorpholino)-N-(3-methyl-4-((1-methyl-1H-benzo[d]imidazol-5-yl)oxy)phenyl)pyrimido[5,4-d]pyrimidin-4-amine], for which the IC50 is 83.9 nM in assay [1], 76.6 nM in assay [2], at least 10000 nM in assay [3] and 69.6 nM in assay [4] (Assay 1 IC50 (nM)).

As to `CCn1cnc2cc(Oc3ccc(Nc4ncnc5cnc(N6CCOCC6)nc45)cc3C)ccc21` [Example 75, N-(4-((1-ethyl-1H-benzo[d]imidazol-5-yl)oxy)-3-methylphenyl)-6-morpholinopyrimido[5,4-d]pyrimidin-4-amine 2,2,2-trifluoroacetate], the IC50 in assay [1] is 141 nM; in assay [2] it was 23.9 nM; in assay [3] it was at least 10000 nM; in assay [4] (Assay 1 IC50 (nM)), 51.8 nM.

Take `COCCOc1ncc2ncnc(Nc3ccc(Oc4ccc5c(c4)ncn5C)c(C)c3)c2n1` [Example 76, 6-(2-methoxyethoxy)-N-(3-methyl-4-((1-methyl-1H-benzo[d]imidazol-5-yl)oxy)phenyl)pyrimido[5,4-d]pyrimidin-4-amine 2,2,2-trifluoroacetate]: the IC50 in assay [1] is 2340 nM; in assay [2], 1300 nM; in assay [3] it was at least 10000 nM; in assay [4] (Assay 1 IC50 (nM)), 337 nM.

`Cn1cnc2cc(Oc3ccc(Nc4ncnc5cnc(N6CCOCC6)nc45)cc3Cl)ccc21` [Example 81, N-(3-chloro-4-((1-methyl-1H-benzo[d]imidazol-5-yl)oxy)phenyl)-6-morpholinopyrimido[5,4-d]pyrimidin-4-amine 2,2,2-trifluoroacetate]: the IC50 in assay [1] was 847 nM; in assay [2], 77.1 nM; in assay [3], at least 10000 nM; in assay [4] (Assay 1 IC50 (nM)), 153 nM.

Take `CC(=O)N1C2CC1CN(c1ncc3ncnc(Nc4ccc(Oc5ccc6c(c5)ncn6C)c(C)c4)c3n1)C2` [Example 89, 1-(3-(8-((3-methyl-4-((1-methyl-1H-benzo[d]imidazol-5-yl)oxy)phenyl)amino)pyrimido[5,4-d]pyrimidin-2-yl)-3,6-diazabicyclo[3.1.1]heptan-6-yl)ethan-1-one]: the IC50 was 285 nM in assay [1], 187 nM in assay [2], at least 10000 nM in assay [3] and 68.1 nM in assay [4] (read-out: Assay 1 IC50).

For the compound `Cc1cc(Nc2ncnc3cnc(OCC(F)F)nc23)ccc1Oc1ccc2c(c1)ncn2C` [Example 177, 6-(2,2-difluoroethoxy)-N-(3-methyl-4-((1-methyl-1H-benzo[d]imidazol-5-yl)oxy)phenyl)pyrimido[5,4-d]pyrimidin-4-amine], the 50% inhibitory concentration (IC50) was 150 nM in assay [1], 109 nM in assay [2], at least 10000 nM in assay [3] and 53.2 nM in assay [4] (read-out: Assay 1 IC50).

For the compound `CCCOc1ncc2ncnc(Nc3ccc(Oc4ccc5c(c4)ncn5C)c(C)c3)c2n1` [Example 221], the IC50 was 334 nM in assay [1], 548 nM in assay [2], at least 10000 nM in assay [3] and 122 nM in assay [4] (read-out: Assay 1 IC50).

With `Cc1cc(Nc2ncnc3cnc(N4CC5CC5(C)C4)nc23)ccc1Oc1ccc2c(c1)ncn2C` (stereo not shown) [Example 225], the IC50 is 218 nM in assay [1], 85.4 nM in assay [2], at least 10000 nM in assay [3] and 149 nM in assay [4] (read-out: Assay 1 IC50).

`CO[C@@H]1CCCN(c2ncc3ncnc(Nc4ccc(Oc5ccc6c(c5)ncn6C)c(C)c4)c3n2)C1` [Example 227]: the IC50 was 66.9 nM in assay [1], 53.8 nM in assay [2], at least 10000 nM in assay [3] and 47.4 nM in assay [4] (read-out: Assay 1 IC50).

As to `Cc1cc(Nc2ncnc3cnc(N4CCC[C@@H]4C(F)(F)F)nc23)ccc1Oc1ccc2c(c1)ncn2C` [Example 229], the IC50 in assay [1] was 376 nM; in assay [2], 165 nM; in assay [3], at least 10000 nM; in assay [4] (read-out: Assay 1 IC50), 171 nM.

Consider `Cc1cc(Nc2ncnc3cnc(N4CCC(F)(F)CC4)nc23)ccc1Oc1ccc2c(c1)ncn2C` [Example 236], for which the IC50 is 352 nM in assay [1], 89.9 nM in assay [2], at least 10000 nM in assay [3] and 149 nM in assay [4] (read-out: Assay 1 IC50).

For `COC1CC2(C1)CN(c1ncc3ncnc(Nc4ccc(Oc5ccc6c(c5)ncn6C)c(C)c4)c3n1)C2` [Example 237], the concentration for half-maximal inhibition (IC50) in assay [1] was 70.2 nM; in assay [2], 71.6 nM; in assay [3] it was at least 10000 nM; in assay [4] (read-out: Assay 1 IC50), 32 nM.

With `Cc1cc(Nc2ncnc3cnc(N4CCC4C(F)(F)F)nc23)ccc1Oc1ccc2c(c1)ncn2C` (stereo not shown) [Example 238], the IC50 in assay [1] is 227 nM; in assay [2], 163 nM; in assay [3] it was at least 10000 nM; in assay [4] (read-out: Assay 1 IC50), 99.3 nM.

With `Cc1cc(Nc2ncnc3cnc(N4CCCCC4)nc23)ccc1Oc1ccc2c(c1)ncn2C` [Example 242], the IC50 in assay [1] is 130 nM; in assay [2], 76.3 nM; in assay [3], at least 10000 nM; in assay [4] (read-out: Assay 1 IC50), 111 nM.

As for `Cc1cc(Nc2ncnc3cnc(N4CC(OC(F)F)C4)nc23)ccc1Oc1ccc2c(c1)ncn2C` [Example 244], the IC50 is 107 nM in assay [1], 92.2 nM in assay [2], at least 10000 nM in assay [3] and 41.9 nM in assay [4] (read-out: Assay 1 IC50).

With `Cc1cc(Nc2ncnc3cnc(N4CC(COC(F)F)C4)nc23)ccc1Oc1ccc2c(c1)ncn2C` [Example 245], the IC50 in assay [1] was 142 nM; in assay [2], 109 nM; in assay [3], at least 10000 nM; in assay [4] (read-out: Assay 1 IC50), 50.4 nM.

Turning to `Cc1cc(Nc2ncnc3cnc(N4CC(C)(O)C4)nc23)ccc1Oc1ccc2c(c1)ncn2C` [Example 246], the IC50 in assay [1] was 70.8 nM; in assay [2], 103 nM; in assay [3], at least 10000 nM; in assay [4] (read-out: Assay 1 IC50), 28.2 nM.

As to `CO[C@H]1CCCN(c2ncc3ncnc(Nc4ccc(Oc5ccc6c(c5)ncn6C)c(C)c4)c3n2)C1` [Example 248], the IC50 was 122 nM in assay [1], 65.7 nM in assay [2], at least 10000 nM in assay [3] and 57.4 nM in assay [4] (read-out: Assay 1 IC50).

`Cc1cc(Nc2ncnc3cnc(N4CC[C@H](C)C4=O)nc23)ccc1Oc1ccc2c(c1)ncn2C` [Example 250]: the IC50 in assay [1] was 67.6 nM; in assay [2] it was 54.6 nM; in assay [3] it was at least 10000 nM; in assay [4] (read-out: Assay 1 IC50), 46.3 nM.

In the case of `Cc1cc(Nc2ncnc3cnc(N4C5COCC4C5)nc23)ccc1Oc1ccc2c(c1)ncn2C` [Example 255], the IC50 in assay [1] was 434 nM; in assay [2] it was 160 nM; in assay [3], at least 10000 nM; in assay [4] (read-out: Assay 1 IC50), 113 nM.

Consider `Cc1cc(Nc2ncnc3cnc(N4CCOC[C@@H]4C)nc23)ccc1Oc1ccc2c(c1)ncn2C` [Example 258], for which the IC50 is 177 nM in assay [1], 51.4 nM in assay [2], at least 10000 nM in assay [3] and 88.3 nM in assay [4] (read-out: Assay 1 IC50).
